Test results: the Kinase Knowledgebase extract (Sharma et al. 2016)

The compounds below were run against CDK2 (human) (UniProt P24941) (assay: Enzyme Assay).
For `O=c1[nH][nH]c2ccc(-c3nc(Nc4n[nH]c5cc(=O)n(-c6ccc(Oc7ccccc7)cc6)nc45)c4ccccc4n3)cc12`, the Ki was < 1 µM. `O=c1[nH][nH]c2cc(NCCONc3nccnn3)ccc12` was tested, and the Ki was < 1 µM. For `O=c1[nH][nH]c2cc(C3CC3)c(-c3nc(Nc4n[nH]c5c(F)cc(F)cc45)c4ccccc4n3)cc12`, the Ki was < 1 µM. `O=c1[nH][nH]c2cc(CCCC(Nc3ccccn3)c3ccccc3)ccc12` (centres undefined) was tested, and the Ki was < 1 µM. With `O=c1[nH][nH]c2cc(NCC3CCCC3Nc3ccccn3)ccc12` (centres undefined) the Ki was < 1 µM. For `CC(C)c1cc(Nc2nc(Nc3ccc4c(=O)[nH][nH]c4c3)nc3ccc(-c4ccccc4)cc23)n[nH]1`, the Ki was < 1 µM. For `O=c1[nH][nH]c2ccc(-c3nc4c(c(Nc5n[nH]c6ccc(F)cc56)n3)CCC4)c(C(F)(F)F)c12`, the Ki was < 1 µM. In the case of `Cc1cc(Nc2cc(C)[nH]n2)nc(Nc2ccc3c(=O)[nH][nH]c3c2)n1`, the Ki is reported as < 1 µM. `COCc1cc(Nc2n[nH]c3ccccc23)nc(-c2ccc3[nH][nH]c(=O)c3c2)n1` was tested, and the Ki was < 1 µM. With `O=C(CCNc1cc(C2CC2)[nH]n1)Nc1ccc2c(=O)[nH][nH]c2c1` the Ki was < 1 µM. For `Cc1cc(Nc2cc(C)[nH]n2)nc(Cc2ccc3c(=O)[nH][nH]c3c2)n1`, the Ki was < 1 µM. In the case of `O=c1[nH][nH]c2cc(Cl)c(-c3cc4ncccc4c(Nc4n[nH]c5ccccc45)n3)cc12`, the Ki is reported as < 1 µM. `Cc1cnc(NC(=O)CC(=O)Cc2ccc3c(=O)[nH][nH]c3c2)s1` was tested, and the Ki was < 1 µM. `O=c1[nH][nH]c2cc(COc3cc(Nc4n[nH]c5ccccc45)ccn3)ccc12` was tested, and the Ki was < 1 µM. `O=c1[nH][nH]c2cc(Sc3nc(Nc4n[nH]c5ccccc45)c4ccccc4n3)ccc12` was tested, and the Ki was < 1 µM. In the case of `Cn1cnc(NC2CCCC2CNc2ccc3c(=O)[nH][nH]c3c2)c1` (centres undefined), the Ki is reported as < 1 µM. In the case of `O=C(CC(=O)Nc1nccnn1)Nc1ccc2c(=O)[nH][nH]c2c1`, the Ki is reported as < 1 µM. `O=c1[nH][nH]c2cc(NCCC(Nc3nccnn3)c3ccccc3)ccc12` (centres undefined) was tested, and the Ki was < 1 µM. In the case of `O=c1[nH][nH]c2cc(OCCC(Nc3nccnn3)c3ccccc3)ccc12` (centres undefined), the Ki is reported as < 1 µM. For `O=c1[nH][nH]c2cc(SC(CCNc3nccnn3)Cc3ccccc3)ccc12` (centres undefined), the Ki was < 1 µM. For `O=c1[nH][nH]c2cc(CCCCNc3cc(C4CC4)[nH]n3)ccc12`, the Ki was < 1 µM. In the case of `Cc1cnc(NCCC(Cc2ccccc2)Sc2ccc3c(=O)[nH][nH]c3c2)s1` (centres undefined), the Ki is reported as < 1 µM. For `O=c1[nH][nH]c2cc(OC3COCC(Nc4nccnn4)C3)ccc12` (centres undefined), the Ki was < 1 µM. With `O=c1[nH][nH]c2ccc(-c3nc(Nc4n[nH]c5ccccc45)c4cccnc4n3)c(C(F)(F)F)c12` the Ki was < 1 µM. `O=c1[nH][nH]c2cc(C3CC3C3COCC(Nc4nccnn4)C3)ccc12` (centres undefined) was tested, and the Ki was < 1 µM. For `O=c1[nH][nH]c2cc(CCCONc3nccnn3)ccc12`, the Ki was < 1 µM. For `O=c1[nH][nH]c2cc(CC(CCNc3ccccn3)Cc3ccccc3)ccc12` (centres undefined), the Ki was < 1 µM. In the case of `O=c1[nH][nH]c2cc(Cl)c(-c3cc(Nc4cc(C5CC5)[nH]n4)c4ccccc4n3)cc12`, the Ki is reported as < 1 µM. For `O=c1[nH][nH]c2ccc(-c3cc4ccccc4c(Nc4n[nH]c5c(F)cc(F)cc45)n3)c(C(F)(F)F)c12`, the Ki was < 1 µM. In the case of `O=c1[nH][nH]c2cc(NC3CCCC(Nc4ccccn4)C3)ccc12` (centres undefined), the Ki is reported as < 1 µM. `Cc1cc(Nc2nc(Sc3ccc4c(=O)[nH][nH]c4c3)nc3cc(N)ccc23)n[nH]1` was tested, and the Ki was < 1 µM. `O=c1[nH][nH]c2cc(NCC3CCCC3Nc3nccnn3)ccc12` (centres undefined) was tested, and the Ki was < 1 µM. In the case of `O=c1[nH][nH]c2cc(NC3COCC(Nc4cc(C5CC5)[nH]n4)C3)ccc12` (centres undefined), the Ki is reported as < 1 µM. For `Cc1cnc(NC2CCC(Sc3ccc4c(=O)[nH][nH]c4c3)C2)s1` (centres undefined), the Ki was < 1 µM. `Cc1cc(Nc2cc(-c3c(C)cccc3C)nc(Oc3ccc4c(=O)[nH][nH]c4c3)n2)n[nH]1` was tested, and the Ki was < 1 µM. In the case of `Cn1cnc(NC2COCC(Oc3ccc4c(=O)[nH][nH]c4c3)C2)c1` (centres undefined), the Ki is reported as < 1 µM. With `O=c1[nH][nH]c2cc(COc3cc(Nc4n[nH]c5ccccc45)c4ccccc4n3)ccc12` the Ki was < 1 µM. In the case of `CC(=O)Nc1cccc(-c2cc(Nc3cc(C)[nH]n3)nc(Oc3ccc4c(=O)[nH][nH]c4c3)n2)c1`, the Ki is reported as < 1 µM. For `O=c1[nH][nH]c2cc(Nc3cccc(Nc4n[nH]c5ccccc45)n3)ccc12`, the Ki was < 1 µM.
